Assays:
[1] = tested on: transglutaminase (TGase); experiment: Measurement of TG (TGase inhibitory activity, monodansyl cadaverine / N,N-dimethylcasein fluorescence, FDSS 3000); assay type: biochemical
Description: For example, the method described in the Example can be performed.
The compound of the present invention (10 mM, 1 μL) was taken in a 96-well plate (Nunc, 96 Well Black Plate with Clear Bottom), an enzyme reaction solution (100 mM HEPES-NaOH, pH 7.5, 1 mM CaCl2, 20 μM monodansyl cadaverine, 0.05 mg/mL N,N-dimethylcasein, 5 μg/mL TGase) (0.1 ml) was added and the mixture was sufficiently mixed without making foams. The mixture was set on a fluorescence drug screening system FDSS 3000 (Hamamatsu Photonics K.K.), and changes in the fluorescence wavelength per unit time at 340 nm were measured, based on which the TGase inhibitory activity of the compound of the present invention was calculated. As a control, change in the fluorescence when 1 μL of DMSO (dimethyl sulfoxide) was added instead of the compound of the present invention was taken as 100, and TG50 was when the activity decreased to half due to the compound of the present invention.

[2] = tested on: Truncated N-terminal huntington 150 Q-EGFP-Neuron 2a cells; experiment: Measurement of x-Fold (polyglutamine aggregation inhibitory activity); assay type: cell-based
Description: In the present invention, the polyglutamine aggregation inhibitory activity (x-Fold) can be measured, for example, by the method described in the Example.
The number of the aggregated cells, and the total number of cells were counted by Array Scan V T1 (manufactured by Cellomics, Pittuburg, USA), and the ratio of the aggregated cells to the total number of cells was determined (x-Fold). […]

[3] = TGase activity with compound (10 mM, 1 μL in 0.1 ml enzyme reaction solution), DMSO control taken as 100
[4] = TGase inhibitory activity value, Table 1
[5] = polyglutamine aggregation inhibitory activity, Table 1
[6] = ratio of aggregated cells to total number of cells, compound 20 μM, 20 hr, almost 1 without compound, smaller = stronger inhibition

| Compound | TGase activity remaining (% of DMSO control = 100) [1, 3] | TGase activity remaining (% of DMSO control = 100) [1, 4] | x-Fold [2, 5] | x-Fold [2, 6] | further results |
| --- | --- | --- | --- | --- | --- |
| NCCOB(c1ccccc1)c1ccc(B(OCCN)c2ccccc2)o1 [Example 384, bis(2,5-(phenylaminoethoxyboryl))furan] | 60 | 60 | 1.05 | 1.05 | – |
| NCCC(N)C(=O)OB(c1ccc(Cl)c(F)c1)c1ccc(Cl)c(F)c1 (centres unmarked) [Example 95, di(3-fluoro-4-chlorophenyl)(2,4-diaminolactonate-O,N)borane] | 114 | 114 | 0.88 | 0.88 | – |
| NCCSB(c1ccccc1)c1ccccc1 [Example 151, 2-aminoethylthiodiphenylborane] | 33 | 33 | 0.87 | 0.87 | – |
| COc1ccc(NCCOBc2cccc(COCc3cccc(BOCCNc4ccc(OC)cc4)c3)c2)cc1 [Example 343, bis(3-(4-methoxyphenylaminoethoxyboryl)benzyl)ether] | 55 | 55 | 1.02 | 1.02 | – |
| COc1ccc(F)cc1B(O)c1ccc(COCc2ccc(B(O)c3cc(F)ccc3OC)cc2)cc1 [Example 349, bis(4-(2-methoxy-5-fluorophenylhydroxyboryl)benzyl)ether] | 104 | 104 | 0.80 | 0.80 | – |
| CN(C)CCOB(c1ccccc1)c1ccc(Oc2ccc(B(OCCN(C)C)c3ccc(CO)cc3)cc2)cc1 [Example 392, (4-(phenyl-N,N-dimethylaminoethoxyboryl)phenyl)(4′-(hydroxymethylphenyl-N,N-dimethylaminoethoxyboryl)phenyl)ether] | 83 | 83 | 0.91 | 0.91 | – |
| Cc1cc(B(O)c2ccccc2)ccc1B(O)c1ccccc1 [Example 358, 2,5-di(phenylhydroxyboryl)toluene] | 112 | 112 | 0.91 | 0.91 | – |
| Cc1ccc(B(O)c2ccc(COCc3ccc(B(O)c4ccc(C)c(Cl)c4)cc3)cc2)cc1Cl [Example 144, bis(3-chloro-4-methylphenylhydroxyboryl 4-benzyl)ether] | 99 | – | – | 0.87 | – |
| NCCOB(c1cc(Cl)ccc1F)c1cc(Cl)ccc1F [Example 100, aminoethyl bis(3-chloro-6-fluorophenyl)borinate] | 119 | 119 | 0.97 | 0.97 | – |
| Cc1ccc(Cl)cc1B(OCC1CCCCN1)c1cc(Cl)ccc1C (centres unmarked) [Example 242, di(5-chloro-2-methylphenyl) 2-piperidinomethylborinate] | 98 | – | – | 1.17 | – |
| CCCCB(CCCC)OC(=O)C(N)CC(N)=O (centres unmarked) [Example 183, dibutyl(asparagine-O,N)borane] | 91 | 91 | 1.02 | 1.02 | – |
| FC(F)(F)c1ccc(B(OCc2ccccn2)c2ccc(C(F)(F)F)cc2)cc1 [Example 155, di(trifluoromethylphenyl) 2-pyridinomethylborinate] | 100 | – | – | 1.02 | – |
| FC(F)(F)c1ccc(C(OB(c2ccccc2)c2cc(B(OC(c3ccc(C(F)(F)F)cc3)c3ccccn3)c3ccccc3)cc(B(OC(c3ccc(C(F)(F)F)cc3)c3ccccn3)c3ccccc3)c2)c2ccccn2)cc1 (centres unmarked) [Example 132, 1,3,5-tri(2-pyridyl-4-trifluoromethylphenylmethoxyphenylboryl)benzene] | – | – | 0.95 | 0.95 | – |
| CN(C)CCOB(c1ccccc1)c1ccc(COCc2ccc(B(OCCN(C)C)c3ccccc3)cc2)cc1 [Example 152, di(4,4′-phenyldimethylaminoethoxyboryl)benzylether] | – | – | – | 1.07 | TGase activity remaining (% of DMSO control = 100) ([1]; TGase inhibitory activity value, Table 1, listed as 1073): 54; x-Fold ([2]; polyglutamine aggregation inhibitory activity, Table 1, listed as 1073): 1.07 |
| Cc1ccc(B(OCCN(C)C)c2ccc(C)c(Cl)c2)cc1Cl [Example 207, di(3-chloro-4-methylphenyl)dimethylaminoethylborinate] | – | – | 0.91 | 0.91 | – |
| FITC aminoethylaminoethyl diphenylborinate [Example 161] | 6 | 6 | 0.99 | 0.99 | – |
| Cc1ccc(Cl)cc1B(OCCNCc1ccccc1)c1cc(Cl)ccc1C [Example 164, di(3-chloro-6-methylphenyl)benzylaminoethylborinate] | – | – | – | 0.67 | – |

| Compound | TGase activity remaining (% of DMSO control = 100) [1, 3] | TGase activity remaining (% of DMSO control = 100) [1, 4] | x-Fold [2, 5] | x-Fold [2, 6] | further results |
| --- | --- | --- | --- | --- | --- |
| c1ccc(B(OCCN2CCN(CCOB(c3ccccc3)c3ccccc3)CC2)c2ccccc2)cc1 [Example 356] | – | 126 | 0.94 | – | – |
| NCCOB(c1cc(F)cc(Cl)c1)c1cc(F)cc(Cl)c1 [Example 99, aminoethyl bis(3-chloro-5-fluorophenyl)borinate] | 109 | 109 | 0.73 | 0.73 | – |
| NCCOB(c1ccc(C(F)(F)F)cc1)c1ccc(C(F)(F)F)cc1 [Example 181, di(trifluoromethylphenyl) 2-aminoethylborinate] | 54 | – | – | 0.69 | – |
| CN(C)CCOB(c1ccccc1)c1ccc(Oc2ccc(B(OCCN(C)C)c3ccccc3)cc2)cc1 [Example 395, bis(4,4′-(phenyl-N,N-dimethylaminoethoxyboryl)phenyl)ether] | 116 | – | – | 0.86 | – |
| NCCOB(c1ccc(Oc2ccccc2)cc1)c1ccc(Oc2ccc(B(OCCN)c3ccc(Oc4ccccc4)cc3)cc2)cc1 [Example 398, bis(4,4′-(phenoxyphenyl-aminoethoxyboryl)phenyl)ether] | – | – | – | 0.88 | x-Fold ([2]; polyglutamine aggregation, Truncated N-terminal huntington 150 Q-EGFP-Neuron 2a cells): 0.88 |
| OB(c1ccccc1)c1cccc(COCc2ccccc2B(O)c2ccccc2)c1 [Example 124, (2-phenylhydroxyborylbenzyl)(3-(phenylhydroxyboryl)benzyl)ether] | – | – | – | 0.96 | x-Fold ([2]; polyglutamine aggregation inhibitory activity, Table 1, listed as 656): 0.96 |
| CN(C)CCOB(c1ccccc1)c1cccc(COCc2cccc(B(OCCN(C)C)c3ccccc3)c2)c1 [Example 172, bis(3,3′(phenyldimethylaminoethoxyboryl)benzyl)ether] | – | – | – | 1.22 | x-Fold ([2]; polyglutamine aggregation inhibitory activity, Table 1, listed as 2024): 1.22 |
| Cc1ccc(B(OC(=O)C(N)CC(N)=O)c2ccc(C)c(Cl)c2)cc1Cl (centres unmarked) [Example 448] | – | – | – | 0.95 | – |
| OB(O)c1cccc2ccccc12 [Example 324, naphthaleneboronic acid] | – | – | 0.76 | 0.76 | – |
| Cc1ccc(B(OCC(N)Cc2ccccc2)c2ccc(C)c(Cl)c2)cc1Cl (centres unmarked) [Example 208, di(3-chloro-4-methylphenyl)-2-benzyl-2-aminoethylborinate] | – | – | 0.67 | 0.67 | – |
| OB(c1cccs1)c1cccs1 [Example 253] | – | – | – | 1.11 | – |
| NCCOB(c1ccccc1)c1cccc(COCCc2ccccc2B(OCCN)c2ccccc2)c1 [Example 369] | – | – | 1.10 | 1.10 | – |
| OB(c1ccc(C(F)(F)F)cc1)c1ccc(C(F)(F)F)cc1 [Example 230, di(trifluoromethylphenyl)borinic acid] | – | – | – | 1.03 | x-Fold ([2]; polyglutamine aggregation inhibitory activity, Table 1, listed as 4138): 1.03 |
| Cc1ccc(Cl)cc1B(OCCN)c1cc(Cl)ccc1C [Example 166, di(3-chloro-6-methylphenyl)aminoethylborinate] | – | – | – | 0.70 | – |
| NC(COB(c1ccccc1)c1ccccc1)Cc1ccccc1 [Example 212, diphenyl(R) 2-benzyl-2-aminoethyl borinate] | – | – | – | 0.75 | x-Fold ([2]; polyglutamine aggregation inhibitory activity, Table 1, listed as 3073): 0.75 |
| NCC(=O)OB(c1ccccc1)c1ccc(Oc2ccc(B(OC(=O)CN)c3ccccc3)cc2)cc1 [Example 169, di((phenylglycine-O,N boryl)phenyl)ether] | – | – | – | 0.78 | – |
| NC(COB(c1ccccc1)c1ccccc1)Cc1ccccc1 [Example 213, diphenyl(S) 2-benzyl-2-aminoethyl borinate] | – | – | – | 1.00 | x-Fold ([2]; polyglutamine aggregation inhibitory activity, Table 1, listed as 3075): 1.00 |
